Results as given in BindingDB's records for doi:10.1021/jm060290f (Cardiff University, 2006).

Experiments:
[1] = target: sterol 24-C-methyltransferase (Leishmania major); assay: Inhibition of Leishmania major recombinant 24-SMT
[2] = target: sterol 24-C-methyltransferase (Trypanosoma brucei brucei); assay: Inhibition of Trypanosoma brucei brucei recombinant 24-SMT

| Structure (SMILES) | IC50 [1] [µM] | IC50 [2] [µM] |
| --- | --- | --- |
| C[C@H](C(=O)NCCCC[C@H](NC(=O)OCc1ccccc1)C(=O)O)[C@H]1CC[C@H]2C3CC=C4C[C@@H](O)CC[C@]4(C)[C@H]3CC[C@]12C (some centres not stated) [3beat-ol-23,24-bisnor-5-en-22-(6-(2-Z-amino)hexanoic acid) amide] | > 100 |  |
| CC(=O)O[C@H]1CC[C@@]2(C)C(=CCC3[C@@H]4CC[C@H]([C@H](C)C(=O)NC[C@H](NC(=O)OC(C)(C)C)C(=O)O)[C@@]4(C)CC[C@@H]32)C1 (stereo partly drawn) [3beta-acetoxy-23,24-bisnor-5-en-22-(3-(2-Boc-amino)propanoic acid) amide] | > 100 |  |
| CC(=O)O[C@H]1CC[C@@]2(C)C(=CCC3[C@@H]4CC[C@H]([C@H](C)CNC[C@H](NC(=O)OC(C)(C)C)C(=O)O)[C@@]4(C)CC[C@@H]32)C1 (stereo partly drawn) [3beta-acetoxy-23,24-bisnor-5-en-22-(3-(2-Boc-amino)propanoic acid) amine] | > 100 |  |
| CC(=O)O[C@H]1CC[C@@]2(C)C(=CCC3[C@@H]4CC[C@H]([C@H](C)C(=O)NCC[C@H](NC(=O)OC(C)(C)C)C(=O)O)[C@@]4(C)CC[C@@H]32)C1 (stereo partly drawn) [3beta-acetoxy-23,24-bisnor-5-en-22-(4-(2-Boc-amino)butanoic acid) amide] | > 100 |  |
| CC(=O)O[C@H]1CC[C@@]2(C)C(=CCC3[C@@H]4CC[C@H]([C@H](C)CNCC[C@H](NC(=O)OC(C)(C)C)C(=O)O)[C@@]4(C)CC[C@@H]32)C1 (stereo partly drawn) [3beta-acetoxy-23,24-bisnor-5-en-22-(4-(2-Boc-amino)butanoic acid) amine] | > 100 |  |
| CC(=O)O[C@H]1CC[C@@]2(C)C(=CCC3[C@@H]4CC[C@H]([C@H](C)C(=O)NCCC[C@H](NC(=O)OCc5ccccc5)C(=O)O)[C@@]4(C)CC[C@@H]32)C1 (stereo partly drawn) [3beta-acetoxy-23,24-bisnor-5-en-22-(5-(2-Z-amino)pentanoic acid) amide] | > 100 |  |
| CC(=O)O[C@H]1CC[C@@]2(C)C(=CCC3[C@@H]4CC[C@H]([C@H](C)CNCCC[C@H](NC(=O)OCc5ccccc5)C(=O)O)[C@@]4(C)CC[C@@H]32)C1 (stereo partly drawn) [3beta-acetoxy-23,24-bisnor-5-en-22-(5-(2-Z-amino)pentanoic acid) amine] | > 100 |  |
| CC(=O)O[C@H]1CC[C@@]2(C)C(=CCC3[C@@H]4CC[C@H]([C@H](C)C(=O)NCCCC[C@H](NC(=O)OCc5ccccc5)C(=O)OCc5ccccc5)[C@@]4(C)CC[C@@H]32)C1 (stereo partly drawn) [3beta-acetoxy-23,24-bisnor-5-en-22-(6-(2-Z-amino)benzyl hexanoate) amide] | > 100 |  |
| CC(=O)O[C@H]1CC[C@@]2(C)C(=CCC3[C@@H]4CC[C@H]([C@H](C)CNCCCC(=O)O)[C@@]4(C)CC[C@@H]32)C1 (stereo partly drawn) [3beta-acetoxy-23,24-bisnor-chol-5-en-22-(butanoic acid) amine] | > 100 |  |
| COC(=O)CNC[C@@H](C)[C@H]1CC[C@H]2C3CC=C4C[C@@H](OC(C)=O)CC[C@]4(C)[C@H]3CC[C@]12C (stereo partly drawn) [3beta-acetoxy-23,24-bisnor-chol-5-en-22-(methyl ethanoate) amine] | > 100 |  |
| COC(=O)CCCCCCCNC[C@@H](C)[C@H]1CC[C@H]2C3CC=C4C[C@@H](OC(C)=O)CC[C@]4(C)[C@H]3CC[C@]12C (stereo partly drawn) [3beta-acetoxy-23,24-bisnor-chol-5-en-22-(methyl octanoate) amine] | > 100 | > 100 |
| COC(=O)CCCCNC[C@@H](C)[C@H]1CC[C@H]2C3CC=C4C[C@@H](OC(C)=O)CC[C@]4(C)[C@H]3CC[C@]12C (stereo partly drawn) [3beta-acetoxy-23,24-bisnor-chol-5-en-22-(methyl pentanoate) amine] | > 100 |  |
| COC(=O)CCNC[C@@H](C)[C@H]1CC[C@H]2C3CC=C4C[C@@H](OC(C)=O)CC[C@]4(C)[C@H]3CC[C@]12C (stereo partly drawn) [3beta-acetoxy-23,24-bisnor-chol-5-en-22-(methyl propanoate) amine] | > 100 |  |
| CC(=O)O[C@H]1CC[C@@]2(C)C(=CCC3[C@@H]4CC[C@H]([C@H](C)CNCCCCCCCC(=O)O)[C@@]4(C)CC[C@@H]32)C1 (stereo partly drawn) [3beta-acetoxy-23,24-bisnor-chol-5-en-22-(octanoic acid) amine] | > 100 |  |
| C[C@H](C(=O)NCCC[C@H](NC(=O)OCc1ccccc1)C(=O)O)[C@H]1CC[C@H]2C3CC=C4C[C@@H](O)CC[C@]4(C)[C@H]3CC[C@]12C (stereo partly drawn) [3beta-ol-23,24-bisnor-5-en-22-(5-(2-Z-amino)pentanoic acid) amide] | > 100 |  |
| COC(=O)[C@@H](N)CCCCNC(=O)[C@@H](C)[C@H]1CC[C@H]2C3CC=C4C[C@@H](O)CC[C@]4(C)[C@H]3CC[C@]12C (stereo partly drawn) [3beta-ol-23,24-bisnor-5-en-22-(6-(2-amino) hexanoate ester) amide] | > 100 |  |
| C[C@H](C(=O)NCCCC(=O)O)[C@H]1CC[C@H]2C3CC=C4C[C@@H](O)CC[C@]4(C)[C@H]3CC[C@]12C (stereo partly drawn) [3beta-ol-23,24-bisnor-5-en-22-(butanoic acid) amide] | > 100 |  |
| C[C@H](C(=O)NCC(=O)O)[C@H]1CC[C@H]2C3CC=C4C[C@@H](O)CC[C@]4(C)[C@H]3CC[C@]12C (stereo partly drawn) [3beta-ol-23,24-bisnor-5-en-22-(ethanoic acid) amide] | > 100 |  |
| C[C@H](CNCC(=O)O)[C@H]1CC[C@H]2C3CC=C4C[C@@H](O)CC[C@]4(C)[C@H]3CC[C@]12C (stereo partly drawn) [3beta-ol-23,24-bisnor-5-en-22-(ethanoic acid) amine] | > 100 |  |
| C[C@H](C(=O)NCCCCCC(=O)O)[C@H]1CC[C@H]2C3CC=C4C[C@@H](O)CC[C@]4(C)[C@H]3CC[C@]12C (stereo partly drawn) [3beta-ol-23,24-bisnor-5-en-22-(hexanoic acid) amide] | > 100 |  |
| C[C@H](CNCCCCCC(=O)O)[C@H]1CC[C@H]2C3CC=C4C[C@@H](O)CC[C@]4(C)[C@H]3CC[C@]12C (stereo partly drawn) [3beta-ol-23,24-bisnor-5-en-22-(hexanoic acid) amine] | > 100 |  |
| C[C@H](C(=O)NCCCCCCCC(=O)O)[C@H]1CC[C@H]2C3CC=C4C[C@@H](O)CC[C@]4(C)[C@H]3CC[C@]12C (stereo partly drawn) [3beta-ol-23,24-bisnor-5-en-22-(octanoic acid) amide] | > 100 |  |
| C[C@H](CNCCCCCCCC(=O)O)[C@H]1CC[C@H]2C3CC=C4C[C@@H](O)CC[C@]4(C)[C@H]3CC[C@]12C (stereo partly drawn) [3beta-ol-23,24-bisnor-5-en-22-(octanoic acid) amine] | > 100 |  |
| C[C@H](C(=O)NCCCCC(=O)O)[C@H]1CC[C@H]2C3CC=C4C[C@@H](O)CC[C@]4(C)[C@H]3CC[C@]12C (stereo partly drawn) [3beta-ol-23,24-bisnor-5-en-22-(pentanoic acid) amide] | > 100 |  |
| C[C@H](CNCCCCC(=O)O)[C@H]1CC[C@H]2C3CC=C4C[C@@H](O)CC[C@]4(C)[C@H]3CC[C@]12C (stereo partly drawn) [3beta-ol-23,24-bisnor-5-en-22-(pentanoic acid) amine] | 48.9 |  |
| C[C@H](C(=O)NCCC(=O)O)[C@H]1CC[C@H]2C3CC=C4C[C@@H](O)CC[C@]4(C)[C@H]3CC[C@]12C (stereo partly drawn) [3beta-ol-23,24-bisnor-5-en-22-(propanoic acid) amide] | > 100 |  |
